According to patent US20070122422A1, “Sodium-independent small neutral amino acid transporter transporting L- and D- amino acids” (Japan Science and Technology Corporation, priority 2000, published 2007):

Key:
Type in all cases: cell-based
[1] = biological target: T1, asc-1 of mouse (co-expressed with 4F2hc of mouse) (Mus musculus, UniProt P63115); test: Incorporation of radiolabeled amino acids and analogs by oocytes co-expressing asc-1 and 4F2hc; settings: for incorporation into the oocytes as substrate: radiolabeled substrate, oocytes expressing both asc-1 and 4F2hc, Na+-free uptake solution; for transport by asc-1 (affinity in words): summary statement, asc-1 co-existing with 4F2hc
T1 construct: expressed in transfected cells; host or cells: Xenopus oocytes injected with cRNA
T1 sequence (P63115 1-530): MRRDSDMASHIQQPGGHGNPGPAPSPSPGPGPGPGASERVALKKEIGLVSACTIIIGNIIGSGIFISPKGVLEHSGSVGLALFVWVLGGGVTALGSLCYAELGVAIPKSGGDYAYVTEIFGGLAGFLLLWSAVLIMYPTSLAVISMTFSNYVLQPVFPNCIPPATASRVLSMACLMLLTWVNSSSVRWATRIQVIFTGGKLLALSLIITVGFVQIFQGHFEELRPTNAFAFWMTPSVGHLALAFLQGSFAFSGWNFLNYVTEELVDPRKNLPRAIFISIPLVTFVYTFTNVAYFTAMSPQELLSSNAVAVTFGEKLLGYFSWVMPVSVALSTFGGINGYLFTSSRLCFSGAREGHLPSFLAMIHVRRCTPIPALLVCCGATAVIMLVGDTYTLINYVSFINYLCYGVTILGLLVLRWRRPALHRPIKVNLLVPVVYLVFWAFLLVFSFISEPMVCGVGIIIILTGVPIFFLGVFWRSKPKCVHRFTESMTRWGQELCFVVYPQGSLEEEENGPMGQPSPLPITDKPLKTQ
T1 sequence (P10852 1-526 partner): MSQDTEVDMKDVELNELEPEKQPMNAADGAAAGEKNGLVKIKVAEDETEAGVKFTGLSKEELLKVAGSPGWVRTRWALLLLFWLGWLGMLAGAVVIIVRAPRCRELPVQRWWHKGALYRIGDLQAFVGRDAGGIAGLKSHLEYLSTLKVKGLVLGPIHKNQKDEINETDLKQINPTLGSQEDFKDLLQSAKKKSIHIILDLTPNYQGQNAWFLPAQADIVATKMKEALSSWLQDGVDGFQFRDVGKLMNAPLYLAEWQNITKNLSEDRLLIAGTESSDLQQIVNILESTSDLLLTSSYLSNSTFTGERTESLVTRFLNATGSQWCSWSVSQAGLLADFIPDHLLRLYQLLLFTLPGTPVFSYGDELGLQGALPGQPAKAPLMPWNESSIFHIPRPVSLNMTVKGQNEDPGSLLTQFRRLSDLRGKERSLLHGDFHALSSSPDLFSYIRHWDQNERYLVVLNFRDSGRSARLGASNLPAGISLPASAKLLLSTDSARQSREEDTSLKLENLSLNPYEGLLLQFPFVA
Protocol: Incorporation of alanine when asc-1 gene cRNA of mouse was solely expressed in oocytes of Xenopus and when asc-1 gene cRNA of mouse and 4F2hc gene cRNA of mouse were expressed in oocytes of Xenopus together was compared.
(§1) Into oocytes were injected 12 ng of asc-1 gene cRNA of mouse, 13 ng of 4F2hc gene cRNA of mouse or 12 ng asc-1 gene cRNA of mouse/13 ng of 4F2hc gene cRNA of mouse to express followed by incubating for 3 days. […] Thus, the oocytes were allowed to stand for 30 minutes in a Na^+-free uptake solution [100 mM choline chloride, 2 mM potassium chloride, 1.8 mM calcium chloride, 1 mM magnesium chloride, 5 mM HEPES; pH 7.4] containing ^14C-alanine (100 μM) as a substrate and the rate of the substrate incorporated into the cells was measured by way of counting the radioactivity incorporated thereinto.
In an experiment of incorporation of alanine by oocytes into which both asc-1 gene cRNA and 4F2hc gene cRNA of mouse were injected together, influence of the salt added to the medium was investigated.
The experiment of incorporation of alanine was carried out in accordance with the method mentioned in the above Example 2(1) using oocytes into which both asc-1 gene cRNA and 4F2hc gene cRNA of mouse were injected together. When the influence of sodium ion was checked however, a standard uptake solution (where 100 mM choline chloride was substituted with 100 mM sodium chloride) was used in place of the Na^+-free uptake solution as the uptake solution. When the influence of chlorine ion was checked, a gluconic acid uptake solution (where 100 mM sodium chloride was substituted with 100 mM sodium gluconate) was used in place of the standard uptake solution.
Incorporation by asc-1 was investigated using various amino acids and analogs thereof as substrates. Experiment for incorporation of various amino acids and analogs thereof was carried out according to the method mentioned in the above Example 2(1) using oocytes into which asc-1 gene cRNA of mouse and 4F2hc gene cRNA of mouse were injected together. With regard to the substrates however, various compounds labeled with radioactivity were used in place of ^14C-alanine.
Influence of pH was checked in an experiment for incorporation of alanine by oocytes into which both asc-1 gene cRNA and 4F2hc gene cRNA of mouse were injected together. With regard to an experiment for incorporation of alanine, the method according to that mentioned in the above Example 2 (1) was carried out using oocytes into which both asc-1 gene cRNA of mouse and 4F2hc gene cRNA of mouse were injected together.

[2] = biological target: T1, asc-1 of mouse (co-expressed with 4F2hc of mouse); test: Release of preloaded 14C-alanine from oocytes co-expressing asc-1 and 4F2hc on extracellular addition of compound; settings: 100 μM compound added to Na+-free uptake solution; room temperature
Protocol: (§2) Release of a preloaded ^14C-alanine mediated by asc-1 was checked in the oocytes into which both asc-1 gene cRNA and 4F2hc gene cRNA of mouse were injected together. ^14C-Alanine (−3nCi) of 100 μM in an amount of 100 nl was injected into the oocytes into which both asc-1 gene cRNA and 4F2hc gene cRNA of mouse were injected together, washed with an ice-cooled Na^+-free uptake solution containing no alanine and transferred to a Na^+-free uptake solution to which alanine (100 μM) was added or not added at room temperature (18° C.-22° C.) and the amount of ^14C-alanine released outside the cells was measured.
In oocytes into which cRNA of asc-1 gene and cRNA of 4F2hc gene of mouse were injected together, release of preloaded ^14C-alanine mediated by asc-1 was investigated whereupon it was checked whether the compound which inhibited the incorporation of ^14C-alanine mediated by asc-1 was a substrate of asc-1.
as §2, with “^14C-Alanine” for “Release of a preloaded ^14C-alanine mediated by asc-1 was checked in the oocytes into which both asc-1 gene cRNA and 4F2hc gene cRNA of mouse were injected together. ^14C-Alanine”, “which amino acid or amino acid analog” for “which alanine”
Black bars in FIG. 18 are the case where there were used oocytes into which cRNA of mouse asc-1 gene and cRNA of mouse 4F2hc gene were injected while white bars are the case where there were used oocytes into which water was injected instead of cRNA as a control.

[3] = biological target: T1, asc-1 of mouse (co-expressed with 4F2hc of mouse); test: Inhibition of 14C-alanine incorporation by added amino acids and analogs in oocytes co-expressing asc-1 and 4F2hc; settings: 14C-alanine 50 μM; 5 mM non-labeled compound; Na+-free uptake solution
Protocol: as §1
In an experiment of incorporation of alanine by oocytes into which both asc-1 gene cRNA of mouse and 4F2hc gene cRNA of mouse were injected, influence of addition of various amino acid and analogs thereof was investigated.
In an experiment of incorporation of alanine, a method according to that mentioned in the above Example 2(1) was carried out using oocytes into which both asc-1 gene cRNA of mouse and 4F2hc gene cRNA of mouse were injected. Here, a Na^+-free uptake solution was used and incorporation of ^14C-alanine (50 μM) was measured in the presence and absence of 5 mM of various compounds (non-labeled).

[4] = biological target: T1, asc-1 of mouse (co-expressed with 4F2hc of mouse); test: Michaelis-Menten kinetic test of substrate incorporation by Xenopus oocytes co-expressing asc-1 and 4F2hc; settings: ratio to the Vmax value for alanine (defined as 1.00)
Protocol: as §1
A Michaelis-Menten kinetic test was carried out for a sodium-independent small neutral amino acid transporter asc-1 which transports L- and D-amino acids. By checking the changes in the rate of incorporation of alanine due to the difference in concentration of the alanine substrate, the Michaelis-Menten kinetic test of asc-1 was carried out.
An experiment for the incorporation of alanine was carried out according to the method mentioned in the above Example 2(1) using the oocytes into which both asc-1 gene cRNA of mouse and 4F2hc gene cRNA of mouse were injected.
With regard to amino acids other than alanine which were used as substrates, a Michaelis-Menten kinetic was carried out as well in the same manner whereupon Km values and Vmax values were calculated. Each Vmax value in Table 1 was shown in terms of the ratio when the Vmax value of alanine was defined as 1.00.

[5] = biological target: T2, intracellular substrate-binding site of asc-1 of mouse (Mus musculus, UniProt P63115); test: Release of injected 14C-amino acid from oocytes co-expressing asc-1 and 4F2hc on extracellular alanine; settings: alanine 100 μM added to Na+-free uptake solution
T2 construct: expressed in transfected cells; host or cells: Xenopus oocytes injected with cRNA
T2 sequence (P63115 1-530): T1 sequence (P63115 1-530)
T2 sequence (P10852 1-526 partner): T1 sequence (P10852 1-526 partner)
Protocol: In oocytes into which cRNA of asc-1 gene and cRNA of 4F2hc gene of mouse were injected together, release of preloaded ^14C-amino acid mediated by asc-1 was checked whereby the substrate selectivity of intracellular substrate-binding site of asc-1 was checked.
^14C-Amino acid (˜3nCi) of 100 μM in an amount of 100 nl was injected into the oocytes into which both asc-1 gene cRNA and 4F2hc gene cRNA of mouse were injected together, washed with an ice-cooled Na^+-free uptake solution containing no alanine and transferred to a Na^+-free uptake solution to which alanine (100 μM) was added or not added at room temperature (18° C.-22° C.) and the amount of ^14C-amino acid released outside the cells was measured.
Black bars in FIG. 21 show the case where alanine was added to a Na^+-free uptake solution while bars with oblique lines show the case where alanine was not added to a Na^+-free uptake solution.

| Compound | incorporation into the oocytes as substrate [1] | transport by asc-1 (affinity in words) [1] | increase in the release of preloaded 14C-alanine [2] | inhibition of incorporation of 14C-alanine mediated by asc-1 [3] | Vmax [4] | release of injected 14C-labeled amino acid by extracellular alanine [5] |
| --- | --- | --- | --- | --- | --- | --- |
| CC(C)(N)C(=O)O [AIB, α-aminoisobutyric acid] | big incorporation | transports | significant increase | inhibited | 0.81 | – |
| NC1(C(=O)O)CC2CCC1C2 (stereo not drawn) [BCH, 2-amino-2-norbornane-carboxylic acid] | – | – | – | did not affect | – | – |
| C[C@@H](N)C(=O)O [D-Alanine] | big incorporation | transports | significant increase | strongly inhibited | 0.86 | – |
| N[C@H](CO)C(=O)O [D-Serine] | big incorporation | highly affinitive | significant increase | strongly inhibited | 1.22 | – |
| C[C@H](O)[C@@H](N)C(=O)O [D-Threonine] | – | – | significant increase | – | – | – |
| N[C@H](CS)C(=O)O [D-cysteine] | – | transports | significant increase | mediumly inhibited | – | – |
| NCC(=O)O [Glycine] | – | – | high increase | – | 0.89 | increase in release |
| N[C@@H](CS)C(=O)O [L-Cysteine] | big incorporation | highly affinitive | – | particularly strongly inhibited | 0.82 | increase in release |
| N[C@@H](Cc1c[nH]cn1)C(=O)O [L-Histidine] | – | lowly affinitive | – | – | 0.79 | – |
| CC[C@H](C)[C@H](N)C(=O)O [L-Isoleucine] | – | lowly affinitive | – | – | 1.33 | – |
| CSCC[C@H](N)C(=O)O [L-Methionine] | – | lowly affinitive | medium increase | – | 1.15 | – |
| N[C@@H](Cc1ccccc1)C(=O)O [L-Phenylalanine] | – | lowly affinitive | – | – | 1.09 | – |
| C[C@@H](O)[C@H](N)C(=O)O [L-Threonine] | – | – | high increase | – | 0.86 | increase in release |
| CC(C)[C@H](N)C(=O)O [L-Valine] | – | lowly affinitive | medium increase | – | 1.17 | – |
| CN[C@@H](C)C(=O)O [N-methylalanine] | – | – | – | did not affect | – | – |
| COC(=O)[C@H](C)N [alanine methyl ester] | – | transports | significant increase | inhibited | – | – |
| CNCC(=O)O [sarcosine] | – | – | – | did not affect | – | – |
| NCCC(=O)O [β-Alanine] | big incorporation | transports | significant increase | inhibited | 0.92 | – |
| γ-aminoisobutyric acid | – | – | – | did not affect | – | – |
